Measurements as given in US20240182460A1, “ALLOSTERIC CHROMENONE INHIBITORS OF PHOSPHOINOSITIDE 3-KINASE (PI3K) FOR THE TREATMENT OF DISEASE” (PETRA PHARMA CORPORATION, priority 2022, published 2024).
pIC50: −log10 of the molar value.

Target: PI3Kα E545K (Homo sapiens, UniProt P42336, E545K)
Assay: PI3Kα E545K mutant in vitro cell based assay, MDA-MB-361 cells
Design: MDA-MB-361 (ATCC-HTB-27) cell line (PI3Kα E545K); host or cells: MDA-MB-361
Conditions: MDA-MB-361 cell line, 0% FBS, no insulin, 3 hours treatment
Source text: PI3K-Alpha Kinase (PI3Kα) Activity: Wild-Type PI3Kα, H1047R Mutant PI3Kα, and E545K Mutant PI3Kα In Vitro Cell Based Assays and Determination of IC50 Values for Inhibitors
The MDA-MB-453 (ATCC-HTB-131) cell line (PI3Kα H1047R) and MCF-7 (ATCC-HTB-22) cell line (PI3Kα E545K), MDA-MB-361 (ATCC-HTB-27) cell line (PI3Kα E545K), and SKBR3 (ATCC-HTB-30) cell line (wild type PI3Kα) were obtained from the American Type Culture Collection (Manassas, VA). MDA-MB-453 cells were maintained in Dulbecco's Modified Eagle Media (DMEM, Gibco 12430) supplemented with 10% Fetal Bovine Serum, heat inactivated (FBS HI, Gibco 10082), 1× non-essential amino acids (NEAA, Gibco 11140), 1 mM sodium pyruvate (Gibco 11360) and 1× Anti-Anti (Gibco 15240). MCF-7 cells were maintained in Minimum Essential Media (MEM) (Gibco 11095) supplemented with 10% Fetal Bovine Serum, heat inactivated (FBS HI, Gibco 10082), 1× non-essential amino acids (NEAA, Gibco 11140), 1 mM sodium pyruvate (Gibco 11360), 1× Anti-Anti (Gibco 15240) and 10 μg/mL human insulin (Sigma I 9278). MDA-MB-361 cells were maintained in Dulbecco's Modified Eagle Media (DMEM, Gibco 12430) supplemented with 20% Fetal Bovine Serum, heat inactivated (FBS HI, Gibco 10082), 1× non-essential amino acids (NEAA, Gibco 11140), 1 mM sodium pyruvate (Gibco 11360) and 1× Anti-Anti (Gibco 15240). SKBR3 cells were maintained in McCoy's 5A (Gibco 16600) supplemented with 10% Fetal Bovine Serum, heat inactivated (FBS HI, Gibco 10082), and 1× Anti-Anti (Gibco 15240). Cultures were maintained in a humidified incubator at 37° C. under 5% CO2/95% air.
For compound testing in 0% FBS, MDA-MB-453, MCF-7 and SKBR3 cells were seeded at a density of 1.5×10^4, 1.0×10^4, and 1.0×10^4 cells, respectively, per well in white 384-well plates in 20 μl of Minimum Essential Media (MEM) assay media with 1×NEAA, 1 mM sodium pyruvate, and 1 μg/mL human insulin (Sigma 19278) (Assay Medium); while MDA-MB-361 cells were seeded at a density of 1.5×10^4 per well in white 384-well plates in 20 μl Assay Medium without insulin. After plating, cells were allowed to attach overnight. Compounds dissolved in 10 mM stock solutions in DMSO were serially diluted 1:3 in DMSO to generate a 10-point dilution series and plated using an acoustic liquid handler system (Echo 550 Series Liquid Handler, Labcyte). A 5× intermediate compound dilution plate in MEM with 1×NEAA and 1 mM sodium pyruvate (150 μM starting compound concentration in 1.5% DMSO) was then prepared. Five μl of the intermediate serially diluted compounds were added to the cell plate to final concentrations ranging from […] in 0.3% DMSO. 0.3% DMSO alone was used to establish the maximum (MAX) signal and GDC-0032 at a final concentration of 1 μM was used as a reference compound for the minimum (MIN) signal. After 3 hours treatment, the medium was removed, and the cells were lysed in 10 μL of 1× SureFire Lysis buffer with shaking for 10 minutes at room temperature. The Acceptor Mix (Reaction Buffer 1+Reaction Buffer 2+Activation Buffer+SureFire Ultra Acceptor Beads) was prepared by diluting Activation buffer 25-fold in combined Reaction Buffer 1 and Reaction Buffer 2.
The Acceptor beads were diluted 50-fold in the combined Reaction Buffers. Five μL of Acceptor Mix was added to each well, the plate was sealed and covered with foil and incubated for 1 hour at room temperature. The Donor Mix (dilution buffer+SureFire Ultra Donor Beads) was prepared by diluting Donor Beads 50-fold in dilution buffer. Five μL of the Donor Mix was added to each well and the plate sealed and covered with foil and incubated for 1-2 hours at room temperature in the dark. The plates were read on a Neo2 plate reader instrument from Biotek using standard AlphaLisa settings.
Compounds were tested in duplicate and the % inhibition at each compound concentration was used to generate two dose response curves. One IC50 was generated using average % inhibition at each compound concentration. […]

Chain of PI3Kα E545K (P42336 whole entry E545K): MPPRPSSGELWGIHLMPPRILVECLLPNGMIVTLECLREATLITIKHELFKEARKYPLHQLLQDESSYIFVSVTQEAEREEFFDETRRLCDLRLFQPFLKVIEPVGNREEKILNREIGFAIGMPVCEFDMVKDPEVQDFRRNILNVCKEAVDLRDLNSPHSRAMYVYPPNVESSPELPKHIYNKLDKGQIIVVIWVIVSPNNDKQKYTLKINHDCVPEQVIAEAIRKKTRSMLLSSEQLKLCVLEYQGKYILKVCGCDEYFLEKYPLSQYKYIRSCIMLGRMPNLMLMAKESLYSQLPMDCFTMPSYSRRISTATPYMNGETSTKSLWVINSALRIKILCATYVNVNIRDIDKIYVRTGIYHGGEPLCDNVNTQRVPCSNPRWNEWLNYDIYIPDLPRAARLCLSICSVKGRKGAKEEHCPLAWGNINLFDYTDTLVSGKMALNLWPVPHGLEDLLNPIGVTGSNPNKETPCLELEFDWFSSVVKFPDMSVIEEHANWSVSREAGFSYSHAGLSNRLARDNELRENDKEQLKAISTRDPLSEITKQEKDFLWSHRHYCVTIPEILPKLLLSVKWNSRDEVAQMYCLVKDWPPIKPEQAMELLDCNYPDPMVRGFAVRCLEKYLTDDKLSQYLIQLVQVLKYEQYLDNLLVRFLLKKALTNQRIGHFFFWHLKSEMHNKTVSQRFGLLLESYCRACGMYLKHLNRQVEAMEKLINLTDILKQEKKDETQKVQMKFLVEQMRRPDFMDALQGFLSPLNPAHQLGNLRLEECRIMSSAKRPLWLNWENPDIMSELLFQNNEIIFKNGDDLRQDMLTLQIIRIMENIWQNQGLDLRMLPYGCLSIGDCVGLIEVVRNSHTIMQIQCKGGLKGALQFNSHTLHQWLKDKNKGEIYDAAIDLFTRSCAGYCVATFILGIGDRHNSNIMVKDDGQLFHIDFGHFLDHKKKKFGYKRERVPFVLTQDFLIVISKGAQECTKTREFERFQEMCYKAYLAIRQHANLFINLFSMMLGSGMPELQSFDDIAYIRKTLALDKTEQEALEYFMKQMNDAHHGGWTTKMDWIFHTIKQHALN
Chain of PI3Kα E545K (P27986 whole entry partner): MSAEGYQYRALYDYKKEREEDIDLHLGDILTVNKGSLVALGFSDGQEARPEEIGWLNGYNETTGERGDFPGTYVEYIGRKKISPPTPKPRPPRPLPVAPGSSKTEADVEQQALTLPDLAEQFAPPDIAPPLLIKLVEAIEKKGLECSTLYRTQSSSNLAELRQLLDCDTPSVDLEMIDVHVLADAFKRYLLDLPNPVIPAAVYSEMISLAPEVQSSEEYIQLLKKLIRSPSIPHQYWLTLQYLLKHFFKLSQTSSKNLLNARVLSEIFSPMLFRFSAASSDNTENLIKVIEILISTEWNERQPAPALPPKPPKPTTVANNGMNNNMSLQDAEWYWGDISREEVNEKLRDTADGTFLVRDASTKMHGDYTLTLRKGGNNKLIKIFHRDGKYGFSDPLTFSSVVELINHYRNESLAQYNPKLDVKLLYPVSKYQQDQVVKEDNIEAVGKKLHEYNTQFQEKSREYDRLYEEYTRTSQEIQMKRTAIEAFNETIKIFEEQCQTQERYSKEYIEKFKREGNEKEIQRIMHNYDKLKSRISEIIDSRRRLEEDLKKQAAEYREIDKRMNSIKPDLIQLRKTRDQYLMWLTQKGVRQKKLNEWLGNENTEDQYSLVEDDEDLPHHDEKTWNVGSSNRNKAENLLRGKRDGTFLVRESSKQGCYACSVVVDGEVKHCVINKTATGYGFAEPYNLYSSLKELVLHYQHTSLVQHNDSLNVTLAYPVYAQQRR

SMILES | pIC50
Cc1cc([C@@H](C)Oc2ccc(Cl)nc2C(N)=O)c2oc(-c3ccn4nc(C)cc4c3)c(C)c(=O)c2c1 [Example 76C, 6-Chloro-3-[(1R)-1-[3,6-dimethyl-2-(2-methylpyrazol[1,5-a]pyridin-5-yl)-4-oxo-chromen-8-yl]ethoxy]pyridine-2-carboxamide] | > 6.30
Cc1cc([C@@H](C)Oc2ccc(Cl)nc2C(N)=O)c2oc(-c3ccc4nn(C5COC5)cc4c3)c(C)c(=O)c2c1 [Example 77C, 6-Chloro-3-[(1R)-1-[3,6-dimethyl-2-[2-(oxetan-3-yl)indazol-5-yl]-4-oxo-chromen-8-yl]ethoxy]pyridine-2-carboxamide] | > 6.30
CCc1nc2ccc(-c3oc4c([C@@H](C)Oc5ccc(Cl)nc5C(N)=O)cc(C)cc4c(=O)c3C)cc2s1 [Example 83C, 6-Chloro-3-[(1R)-1-[2-(2-ethyl-1,3-benzothiazol-6-yl)-3,6-dimethyl-4-oxo-chromen-8-yl]ethoxy]pyridine-2-carboxamide] | > 6.30
CCc1nc2ccc(-c3oc4c([C@@H](C)Oc5ccc(Cl)nc5C(N)=O)cc(C)cc4c(=O)c3C)cc2o1 [Example 84C, 6-Chloro-3-[(1R)-1-[2-(2-ethyl-1,3-benzoxazol-6-yl)-3,6-dimethyl-4-oxo-chromen-8-yl]ethoxy]pyridine-2-carboxamide] | > 6.30
Cc1cc([C@@H](C)Oc2ccccc2S(N)(=O)=O)c2oc(-c3ccccc3)c(C)c(=O)c2c1 [Example 102C, 2-[(1R)-1-(3,6-Dimethyl-4-oxo-2-phenyl-chromen-8-yl)ethoxy]benzenesulfonamide] | > 6.30
Cc1cc([C@@H](C)Oc2ccc(Cl)nc2C(N)=O)c2oc(-c3ccc4c(c3)OCCN4C)c(C)c(=O)c2c1 [Example 104A, 6-Chloro-3-[(1R)-1-[3,6-dimethyl-2-(4-methyl-2,3-dihydro-1,4-benzoxazin-7-yl)-4-oxo-chromen-8-yl]ethoxy]pyridine-2-carboxamide] | > 6.30
CONS(=O)(=O)c1nc(Cl)ccc1O[C@H](C)c1cc(C)cc2c(=O)c(C)c(-c3cnn(CC(C)(C)O)c3)oc12 [Example 121C, 6-Chloro-3-[(1R)-1-[2-[1-(2-hydroxy-2-methyl-propyl)pyrazol-4-yl]-3,6-dimethyl-4-oxo-chromen-8-yl]ethoxy]-N-methoxy-pyridine-2-sulfonamide] | > 6.30
Cc1cc([C@@H](C)Oc2ccc(C)nc2S(N)(=O)=O)c2oc(-c3ccccc3)c(C)c(=O)c2c1 [Example 122C, 3-[(1R)-1-(3,6-Dimethyl-4-oxo-2-phenyl-chromen-8-yl)ethoxy]-6-methyl-pyridine-2-sulfonamide] | > 6.30

Other lines, results leading:

pIC50 | SMILES
> 6.30 | Cc1cc([C@@H](C)Oc2ccc(Cl)cc2S(N)(=O)=O)c2oc(-c3cnc4ccoc4c3)c(C)c(=O)c2c1 [Example 100C, 5-Chloro-2-[(1R)-1-(2-furo[3,2-b]pyridin-6-yl-3,6-dimethyl-4-oxo-chromen-8-yl)ethoxy]benzenesulfonamide]
> 6.30 | Cc1cc([C@@H](C)Oc2ccc(F)cc2S(N)(=O)=O)c2oc(-c3cnc4ccoc4c3)c(C)c(=O)c2c1 [Example 106C, 5-Fluoro-2-[(1R)-1-(2-furo[3,2-b]pyridin-6-yl-3,6-dimethyl-4-oxo-chromen-8-yl)ethoxy]benzenesulfonamide]
> 6.30 | Cc1cc([C@@H](C)Oc2ccc(Cl)nc2S(N)(=O)=O)c2oc(-c3cnn(C[C@]45C[C@H](CO4)C5)c3)c(C)c(=O)c2c1 [Example 118C, 6-Chloro-3-[(1R)-1-[3,6-dimethyl-2-[1-(2-oxabicyclo[2.1.1]hexan-1-ylmethyl)pyrazol-4-yl]-4-oxo-chromen-8-yl]ethoxy]pyridine-2-sulfonamide]
> 6.30 | Cc1cc([C@@H](C)Oc2ccc(Cl)nc2C(N)=O)c2oc(-c3ccc4cc[nH]c(=O)c4c3)c(C)c(=O)c2c1 [Example 120A, 6-Chloro-3-[(1R)-1-[3,6-dimethyl-4-oxo-2-(1-oxo-2H-isoquinolin-7-yl)chromen-8-yl]ethoxy]pyridine-2-carboxamide]
